Results taken from US20250066507A1, “METHODS OF TREATING CANCER WITH A COMBINATION OF AN ANTI-PD-1 ANTIBODY AND AN ANTI-TISSUE FACTOR ANTIBODY-DRUG CONJUGATE” (Genmab A/S, priority 2018, published 2025).
Square brackets hold non-standard residues; d marks the D form. Peptide text beside a SMILES is read from it. * marks the point of attachment. Dolaproine = CO[C@@H]([C@@H]1CCCN1)[C@@H](C)C(=O)O; Dil = CC[C@H](C)[C@H](NC)[C@@H](CC(=O)O)OC; X1 = C[C@@H](N*)[C@@H](O)c1ccccc1; NMeV = CN[C@H](C(=O)O)C(C)C

Key:
HeLa cells [1] = test: Western blot of ER stress signalling in MMAE-treated HeLa cells; type: cell-based; conditions: 100 nM MMAE, 16 hours
Experimental: HeLa cells, a cervical cancer cell line, were cultured in Minimum Essential Medium (MEM) with 10% FBS, 10 mM HEPES, 1 mM sodium pyruvate, 2 mM L-glutamine, penicillin (100 U/ml), and streptomycin (100 μg/ml). HeLa cells were treated with 100 nM MMAE for 16 hours and harvested in radioimmunoprecipitation assay buffer (RIPA) buffer for western blot analysis. […] Severe ER stress is a prerequisite to the exposure of pro-phagocytic signals on the surface of tumor cells, and can be indicated by activation of JNK signaling by phosphorylated IRE1.

HeLa cells [2] = test: Live imaging of RFP-tubulin and ER-ID Green in MMAE-treated HeLa cells; type: cell-based; conditions: 100 nM MMAE, imaged over time
Experimental: Treatment of HeLa cells with MMAE led to disassembly of the microtubule network and subsequent ER mislocalization. HeLa cells were transduced with a baculovirus encoding RFP-labeled Tubulin (CellLight Tubulin-RFP, ThermoFisher Scientific) and an ER-binding dye (ER-ID Green, Enzo Life Sciences). Cells were treated with 100 nM MMAE and imaged over time in the present of MMAE. Within 2 hours, fragmentation and disassembly of the microtubule network became evident, concurrent with the breakdown of the perinuclear organized ER lattice (FIGS. 2A and B). The condensed and mislocalized ER skeleton indicated severe ER stress within 8 hours.

HeLa cells [3] = test: ATP and HMGB1 secretion from MMAE-treated HeLa cells; type: cell-based; conditions: 100 nM MMAE, over 24 hours, versus untreated cells
Description: Induction of ICD is also characterized by the secretion of ATP and HMGB1. Extracellular ATP serves as a strong chemotactic signal, promoting immune cell migration to the tumor site. Upon arrival, extracellular HMGB1 signals through various pro-inflammatory receptors (TLR2, TLR4, RAGE) to activate antigen-presenting cells, thereby promoting immune activity within the tumor.

[4] = tested on: Tissue Factor positive cell lines; test: Release of ICD molecules ATP and HMGB1 from Tissue Factor positive cells; type: cell-based; conditions: for ATP secretion: FIG. 4A; for HMGB1 release: FIG. 4C
Description: Auristatin ADC payloads disrupt the microtubule networks resulting in altered ER localization and function, which ultimately results in ER stress. Cells exposed to Tissue Factor directed antibody linked to the monomethyl auristatin E payload (MMAE), i.e., tisotumab vedotin (an antibody drug conjugate or ADC), undergo cell death and as they do release the ICD related molecules ATP (FIG. 4A) and HMGB1 (FIG. 4C). The release of these molecules is specific to tisotumab vedotin ADC and MMAE treatment and occurs across multiple Tissue Factor positive cell lines (FIG. 4B).

[5] = tested on: HPAFII (pancreatic carcinoma); test: Western blot of ER stress pathways in HPAFII cells; type: cell-based; conditions: 18 hours (FIG. 5 legend: 16 hours)
Experimental: (§1) Induction of cell death and release of ICD danger signals occurs concomitant with initiation of an ER stress response. Two Tissue Factor positive cell lines, HPAFII (pancreatic carcinoma) and MDA-MB-231 (breast cell carcinoma) were exposed to tisotumab vedotin ADC, an Isotype-MMAE ADC (H00-MMAE, IgG1 MMAE), or free MMAE for 18 hours and induction of ER stress monitored by western blot analysis. Phosphorylation of inositol-requiring transmembrane kinase/endonuclease 1 (IRE1) was detected after treatment with tisotumab vedotin ADC or MMAE free drug (FIG. 5). […] The ability for auristatins to prime the immune system to recognize tumor antigens opens the door for a myriad of combinatorial therapeutic options.

[6] = tested on: MDA-MB-231 (breast cell carcinoma); test: Western blot of ER stress pathways in MDA-MB-231 cells; type: cell-based; conditions: 18 hours (FIG. 5 legend: 16 hours)
Experimental: as §1

[7] = tested on: CD14+ monocyte/macrophages; test: Monocyte/macrophage activation in PBMCs fed drug-killed MDA-MB-231 cells; type: cell-based; conditions: MDA-MB-231 cells killed with the agent, fed to human PBMCs; for monocyte/macrophage activation monitored by CD86 expression: flow cytometry
Description: FIGS. 6A and 6B is a series of graphs in which Tissue Factor positive MDA-MB-231 cells killed with various agents were fed to human peripheral blood mononuclear cells (PBMCs) and immune activation assessed by increased expression of activations markers on innate CD14+ monocyte/macrophages and induction of chemokine and cytokine production.
Immunogenic cell death, as mediated by MMAE, is regulated cell death that activates adaptive immune responses against antigens from dead and dying tumor cells, and allows for the generation of robust innate immune cell activation and subsequent cytotoxic T cell responses targeted towards specific tumor cell antigens. […] Furthermore, these monocyte/macrophages conditioned by ICD-killed cells promote activation of T cells, as evidenced by production of signature inflammatory cytokines associated with cytotoxic T cell responses.

T cells = test: T cell activation in CSFE labeled PBMCs fed drug-killed MDA-MB-231 cells, with or without nivolumab; type: cell-based, human; conditions: for T cell proliferation (CSFE dilution) / IFNγ production / IL12p70 production: MDA-MB-231 cells exposed to the agent; for T cell proliferation (CSFE dilution): fed to CSFE labeled human PBMCs for 48 hours; for IFNγ production / IL12p70 production: fed to human PBMCs for 48 hours
Description: Induction of the innate immune response following exposure to cancer cells undergoing ICD sets up secondary T cell activation, which can be enhanced by concomitant anti-PD1 treatment.

wild-type tumor cells = test: Syngeneic model: immunization with drug-killed human TF positive tumor cells, then tumor challenge; type: in vivo, Balb/c mice; conditions: for survival after challenge / tumor growth after challenge: Balb/c mice immunized with human TF positive tumor cells killed by the agent, challenged s.c. with 5×10^6 wild-type tumor cells
Experimental: Mouse tumor cells are transfected with plasmid constructs encoding human tissue factor (TF) and sgRNA-guided Cas9 nuclease (sgRNA/Cas9) to generate a murine cell line that expresses the human TF. Fluorescence activated cell sorting (FACS) yields a clonal population of murine tumor cells that stably express human TF, these cells are then treated with lpg to 5 μg per ml of tisotumab vedotin or 100 nM of MMAE for 4 days. In order to prepare dying cells for immunization, treated murine tumor cells are overlaid atop Histopaque, and centrifuged at 2000 g for 30 minutes. Dead and dying cells are pelleted underneath the Histopaque layer, and viability assessed by trypan blue exclusion. A sample with approximately <20% live cells as measured by trypan blue exclusion is obtained. Flash-frozen tumor cells are prepared by submerging the cells in liquid nitrogen for 10 seconds, followed by immersion in 37° C. water until completely thawed. The liquid nitrogen freeze-thaw process is repeated 5 times. Dead and dying human TF positive tumor cells are resuspended in phosphate buffered saline (PBS) and 2×10^6 cells are injected into the peritoneum of immune-competent Balb/c mice. Seven days later, mice receive a second immunization with dead and dying cells prepared in the same manner.
Fourteen days after initial immunization with the dead and dying human TF positive tumor cells, mice are subcutaneously implanted with 5×10^6 wild-type tumor cells and monitored for tumor growth. […] As these effects occur in the absence of any administered therapeutic agent, the administration of cells killed by tisotumab vedotin or MMAE is sufficient to generate long-lasting protective immune memory against subsequent tumor cell challenge. Protective immune memory is amplified by treating these mice with tisotumab vedotin in combination with an antibody that binds to murine PD-1. This combination treatment increases the number of mice that are cured by subsequent tumor challenge.

advanced cervical cancer = conditions: 240 mg Q2W, 19 patients with previously treated; cited from earlier work
[8] = concomitant nivolumab treatment, 48 hours

Molecule | ATP secretion [4] | HMGB1 release [4] | ATF4 cleavage (PERK pathway) [5] | activation of JNK (phosphorylation) [5] | phosphorylation of IRE1 [5] | ATF4 cleavage (PERK pathway) [6] | activation of JNK (phosphorylation) [6] | phosphorylation of IRE1 [6] | release of innate chemokines including MIP10 [7] | monocyte/macrophage activation monitored by CD86 expression [7] | T cell proliferation (CSFE dilution) (T cells) | IFNγ production (T cells) | IL12p70 production (T cells) | survival after challenge (wild-type tumor cells) | tumor growth after challenge (wild-type tumor cells) | further results
CC[C@H](C)[C@@H]([C@@H](CC(=O)N1CCC[C@H]1[C@H](OC)[C@@H](C)C(=O)N[C@H](C)[C@@H](O)c1ccccc1)OC)N(C)C(=O)[C@@H](NC(=O)[C@@H](NC)C(C)C)C(C)C [MMAE, monomethyl auristatin E] (H-[NMeV]V[Dil][Dolaproine]-X1) | robust | robust | upregulation of ATF4 cleavage | increased phosphorylation | detected | upregulation of ATF4 cleavage | increased phosphorylation | detected | induced release | drove monocyte/macrophage activations | drove T cell proliferation | increased | increased | increased survival | delayed tumor growth | phosphorylation of IRE1 (HeLa cells [1]): led to phosphorylation; phosphorylation of JNK (HeLa cells [1]): phosphorylation of IRE1 and JNK; time until condensed and mislocalized ER skeleton indicated severe ER stress (HeLa cells [2]): ≤ 8 h; time until fragmentation and disassembly of the microtubule network and breakdown of the perinuclear ER lattice became evident (HeLa cells [2]): ≤ 2 h; secretion of ATP (HeLa cells [3]): increased secretion; secretion of HMGB1 (HeLa cells [3]): increased secretion
nivolumab: anti-PD-1 antibody, a checkpoint inhibitor |  |  |  |  |  |  |  |  |  |  |  |  |  |  |  | effect of nivolumab on T cell proliferation driven by tisotumab vedotin or MMAE killed cells (T cells; 2 mg/ml of nivolumab, 48 hours): enhanced; effect of concomitant nivolumab on IFNγ production after tisotumab vedotin and MMAE killed cells (T cells; [8]): increased; effect of concomitant nivolumab on IL12p70 production after tisotumab vedotin and MMAE killed cells (T cells; [8]): increased; objective response rate (advanced cervical cancer): 26%
tisotumab |  |  |  |  |  |  |  |  |  |  | did not elicit these responses | did not elicit these responses | did not elicit these responses |  |  | 
tisotumab vedotin | robust | robust | upregulation of ATF4 cleavage | increased phosphorylation | detected | upregulation of ATF4 cleavage | increased phosphorylation | detected | induced release | drove monocyte/macrophage activations | drove T cell proliferation | increased | increased | increased survival | delayed tumor growth | activity (release of ICD molecules) on multiple Tissue Factor positive cell lines ([4]; FIG. 4B): active; number of mice cured by subsequent tumor challenge (wild-type tumor cells; immunized mice treated with tisotumab vedotin in combination with an antibody that binds to murine PD-1): increases
